Source: US10981932B2, “Macrocyclic indole derivatives” (Bayer Aktiengesellschaft, priority 2016, dated 2021)
Counter-ions that a name gives are not always drawn. Like-named read-outs stand apart in the source and are kept apart here.

Legend:
SUDHL5 [1] = test: Anti-proliferative effect (CellTiter-Glo, 72 h), SUDHL5; format: cell-based; details: SUDHL5 cells, antiproliferation, median, read-out: Antiproli SUDHL5 [M] (median)
Procedure, shortened: (§1)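 Luminescence from CellTiter-Glo, read 10 min after reagent addition, reports viable cell content after 72 h of compound treatment at 37 °C. A reference plate read at day 0 gives the starting baseline.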

SUDHL5 [2] = test: Induction of cytotoxicity (CellTiter-Glo, 5 h), SUDHL5
Procedure: Therefore, cytotoxicity assays were run in parallel in SUDHL5 and SUDHL10 cells.
The different cell lines were plated in culture medium (RPMI 1640 [GIBCO #22400-089]supplemented with 10% Fetal Bovine Serum) at a density of 3.300 cells in 30 μl/well in a sterile, solid black, flat bottom, polystyrene, TC-treated 384-well microplate (Corning #3571) using Multidrop Combi Reagent Dispenser. As a control, medium without cells was also added to the plate. Cells were incubated in a humidified incubator at 37° C. overnight. On the next day, the cells were treated with compounds (stock solution, 10 mM in DMSO) using the HP D300 Digital Dispenser in a concentration range of 3.3×10e-5 M (33 μM) to 5×10e-9 M (5 nM) in a single-dot curve with at least 16 dilutions and a DMSO concentration of 0.33%. Rim wells were excluded. The cells were incubated for 5 h hours in a humidified incubator at 37° C. After this incubation, 30 μl of CellTiter-Glo@ Luminescent Cell Viability reagent (Promega, G7573) was added to each well using the Multidrop Combi Reagent Dispenser, followed by 15 min incubation on a shaker at room temperature. Finally, luminescence was read at 0.1 ms, with a gain of 3000 using the PHERAstar FS microplate reader (BMG Labtech).
The Bella DRC Master Sheet was used to calculate IC50s, with fixed CI=0 and C0=1.

A2780 = test: Anti-proliferative effect (CellTiter-Glo, 72 h), A2780; format: cell-based; details: A2780 cells, median, read-out: IC50 antiproliferation assay A2780 [M] (median)
Procedure, shortened: as §1

SUDHL5 [3] = test: Induction of caspase-3/7 activity (Caspase-Glo 3/7), SUDHL5; format: cell-based; details: caspase-3/7 induction, SUDHL5 cells, 3 h treatment, median
Procedure, shortened: (§2)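 Apoptosis induction measured as caspase-3/7 activity (Caspase-Glo 3/7) in DLBCL lines after 3 h treatment at 37 °C; EC50 derived relative to the reference compound's maximal induction, with C0 fixed at 1.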

MCL-1 = MCL-1 (Homo sapiens, UniProt Q07820); test: Protein-protein interaction assay MCL-1/Noxa BH3 peptide (MCL-1 assay), TR-FRET; format: binding; details: MBP-MCL-1 / Noxa BH3-derived peptide, median
Chain of MCL-1 (Q07820 whole entry): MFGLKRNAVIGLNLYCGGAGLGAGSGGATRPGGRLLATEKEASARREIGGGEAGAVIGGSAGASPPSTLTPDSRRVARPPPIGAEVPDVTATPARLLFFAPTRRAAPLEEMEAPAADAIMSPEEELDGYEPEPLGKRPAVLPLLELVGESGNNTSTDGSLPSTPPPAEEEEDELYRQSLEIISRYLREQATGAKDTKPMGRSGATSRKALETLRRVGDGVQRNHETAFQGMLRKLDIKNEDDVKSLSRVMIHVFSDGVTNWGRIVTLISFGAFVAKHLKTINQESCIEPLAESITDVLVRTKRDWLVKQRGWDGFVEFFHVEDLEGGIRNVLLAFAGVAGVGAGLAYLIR
Procedure, shortened: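 Inhibition values were normalized between DMSO controls with all reagents and controls lacking MCL-1. The binding competition used 1 nM MBP-MCL-1 in pH 7 Tris buffer containing 50 mM KF and 100 mM NaCl, with a 10 min compound preincubation at 22 °C.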

MV-4-11 = test: Anti-proliferative effect (CellTiter-Glo, 72 h), MV-4-11; format: cell-based; details: MV-4-11 cells, median, read-out: IC50 antiproliferation assay MV-4-11 [M] (median)
Procedure: Assessment of the Anti-Proliferative Effect of Compounds in Different Cell Lines
The impact of compounds on the proliferation of different cell lines was assessed using the CellTiter-Glo® Luminescent Cell Viability reagent from Promega (G7573). Of note, SUDHL10 and SUDHL5 (DLBCL), NCI-H929 (Multiple Myeloma), A2780 (ovarian carcinoma) as well as MV-4-11(AML) cells are sensitive to MCL-1 inhibition.
In parallel, cells were plated in a reference (day 0) plate for time zero determination.
Rim wells were excluded. The cells were incubated for 72 h hours in a humidified incubator at 37° C. The day 0 plate was measured by adding 30 μl/well of CTG solution (CellTiter-Glo® Luminescent Cell Viability reagent, Promega G7573) to time zero wells in the reference plate followed by a 10 minutes incubation and luminescence reading at 0.1 ms, using the PHERAstar FS microplate reader (BMG Labtech).
After 72 h incubation, the treated plates were measured in the same way as the day 0 plate mentioned above.

SUDHL10 [4] = test: Induction of cytotoxicity (CellTiter-Glo, 5 h), SUDHL10
SUDHL10 [5] = test: Induction of caspase-3/7 activity (Caspase-Glo 3/7), SUDHL10; format: cell-based; details: caspase-3/7 induction, SUDHL10 cells, 3 h treatment, median
Procedure, shortened: as §2

[6] = Homo sapiens, SU-DHL-5, 72 h, 72 h
[7] = Homo sapiens, SU-DHL-5, 5 h, read-out: Cytotox SUDHL5 [M] (median), SUDHL5 cells, cytotoxicity induction, CellTiter-Glo, 5 h, median
[8] = Homo sapiens, SU-DHL10, 5 h, read-out: Cytotox SUDHL10 [M] (median), SUDHL10 cells, cytotoxicity induction, CellTiter-Glo, 5 h, median
[9] = read-out: Cytotox SUDHL5 [M] (median), SUDHL5 cells, cytotoxicity induction, CellTiter-Glo, 5 h incubation, median
[10] = read-out: Cytotox SUDHL10 [M] (median), SUDHL10 cells, cytotoxicity induction, CellTiter-Glo, 5 h incubation, median

Structure (SMILES) | IC50 (SUDHL5 [1]; [6]) | IC50 (SUDHL5 [2]; [7]) | IC50 (A2780; Homo sapiens, A2780, 72 h) | EC50 (SUDHL5 [3]; Homo sapiens, SU-DHL-5, 3 h) | IC50 (MCL-1) | IC50 (MV-4-11; Homo sapiens, MV4-11, 72 h) | IC50 (SUDHL10 [4]; [8]) | EC50 (SUDHL10 [5]; Homo sapiens, SU-DHL10, 3 h) | IC50 (A2780) | IC50 (SUDHL5 [1]; 72 h) | EC50 (SUDHL5 [3]) | IC50 (SUDHL5 [1]; 72 h incubation) | IC50 (SUDHL5 [2]; [9]) | IC50 (SUDHL10 [4]; [10]) | EC50 (SUDHL10 [5]) | IC50 (MV-4-11) | IC50 (SUDHL5 [1]; Homo sapiens, SU-DHL-5, 72 h, 72 h incubation) | IC50 (SUDHL10 [4]; Homo sapiens, SU-DHL10, 5 h, read-out: Cytotox SUDHL10 [M] (median), SUDHL10 cells, cytotoxicity induction, CellTiter-Glo, 5 h incubation, median)
Cc1c2c(nn1C)COCCCCn1c(C(=O)O)c(CCCOc3cccc4cc(C(F)(F)F)ccc34)c3cccc-2c31 (racemic) [Example 310] | 5.42e-06 M | 2.36e-05 M | 6.58e-06 M | 27.4 µM | 0.0331 µM | 1.31e-05 M | 1.75e-05 M | 21.3 µM |  |  |  |  |  |  |  |  |  | 
Cc1nn(C)c2c1-c1cccc3c(CCCOc4cccc5c(Cl)cccc45)c(C(=O)O)n(c13)CCCCOC2 (racemic) [Example 316, (rac)-1-(3-((5-chloronaphthalen-1-yl)oxy)propyl)-10,12-dimethyl-4,5,6,7,9,10-hexahydropyrazolo[4′,3′:9,10][1,6]oxaazacycloundecino[8,7,6-hi]indole-2-carboxylic Acid] | 1.43e-05 M | 1.94e-05 M | > 3.3e-05 M | 17.7 µM | 0.00308 µM | > 3.3e-05 M | > 3.3e-05 M | > 33 µM |  |  |  |  |  |  |  |  |  | 
Cc1c2c(nn1C)COCCCCn1c(C(=O)O)c(CCc3cccc4ccccc34)c3cccc-2c31 (racemic) [Example 354, (rac)-2,3-dimethyl-7-[2-(naphthalen-1-yl)ethyl]-2,10,11,12,13,15-hexahydropyrazolo[4′,3′:9,10][1,6]oxazacycloundecino[8,7,6-hi]indole-8-carboxylic Acid] | > 3.3e-05 M | > 3.3e-05 M | 2.73e-05 M | > 33 µM | 0.296 µM | > 3.3e-05 M | > 3.3e-05 M | > 33 µM | > 3.3e-05 M |  |  |  |  |  |  |  |  | 
Cc1c2c(nn1C)COCCCCn1c(C(=O)O)c(CCc3ccc(C(F)(F)F)cc3)c3cccc-2c31 (racemic) [Example 355, (rac)-2,3-dimethyl-7-{2-[4-(trifluoromethyl)phenyl]ethyl}-2,10,11,12,13,15-hexahydropyrazolo[4′,3′:9,10][1,6]oxazacycloundecino[8,7,6-hi]indole-8-carboxylic Acid] | 3.2e-05 M | > 3.3e-05 M | > 3.3e-05 M | > 33 µM | 1.51 µM | > 3.3e-05 M | > 3.3e-05 M | > 33 µM |  |  |  |  |  |  |  |  |  | 
Cc1c2c(nn1C)CNCCCCn1c(C(=O)O)c(CCCOc3cccc4ccccc34)c3cccc-2c31 (racemic) [Example 356, (rac)-2,3-dimethyl-7-[3-(naphthalen-1-yloxy)propyl]-10,11,12,13,14,15-hexahydro-2H-pyrazolo[3′,4′:8,9][1,6]diazacycloundecino[10,11,1-hi]indole-8-carboxylic Acid] | 2.53e-05 M | > 3.3e-05 M | > 3.3e-05 M | 27.8 µM | 0.00943 µM | > 3.3e-05 M | > 3.3e-05 M | > 33 µM |  | > 3.3e-05 M | > 33 µM |  |  |  |  |  |  | 
Cc1c2c(nn1C)COCCCCn1c(C(=O)O)c(CCOc3ccc4ccccc4c3)c3cccc-2c31 (racemic) [Example 357, (rac)-2,3-dimethyl-7-[2-(naphthalen-2-yloxy)ethyl]-2,10,11,12,13,15-hexahydropyrazolo[4′,3′:9,10][1,6]oxazacycloundecino[8,7,6-hi]indole-8-carboxylic Acid] | 3.27e-05 M | > 3.3e-05 M | > 3.3e-05 M | > 33 µM | 0.0409 µM | 3.19e-05 M | > 3.3e-05 M | > 33 µM |  |  |  |  |  |  |  |  |  | 
COc1c2c(nn1C)COCCCCn1c(C(=O)O)c(CCCOc3cccc4ccccc34)c3cccc-2c31 (single isomer, unassigned) [Example 208, 3-methoxy-2-methyl-7-[3-(naphthalen-1-yloxy)propyl]-2,10,11,12,13,15-hexahydropyrazolo[4′,3′:9,10][1,6]oxazacycloundecino[8,7,6-hi]indole-8-carboxylate] |  |  | 2.03e-05 M |  | 0.00373 µM | 2.68e-06 M |  |  |  |  | 2.99 µM | 3.12e-06 M | 2.63e-06 M | 9.98e-06 M | 14 µM |  |  | 
Cn1nc(COC2CC2)c2c1COCCCCn1c(C(=O)O)c(CCCOc3cccc4ccccc34)c3cccc-2c31 (single isomer, unassigned) [Example 215, 3-[(cyclopropyloxy)methyl]-1-methyl-7-[3-(naphthalen-1-yloxy)propyl]-1,10,11,12,13,15-hexahydropyrazolo[4′,3′:9,10][1,6]oxazacycloundecino[8,7,6-hi]indole-8-carboxylic Acid] |  |  |  |  | 0.182 µM |  |  |  | > 3.3e-05 M |  | > 33 µM | 1.48e-05 M | > 3.3e-05 M | > 3.3e-05 M | > 33 µM | 2.33e-05 M |  | 
Cn1nc(C(F)(F)F)c2c1COCCCCn1c(C(=O)O)c(CCCOc3cccc4ccccc34)c3cccc-2c31 (single isomer, unassigned) [Example 217, 1-methyl-7-[3-(naphthalen-1-yloxy)propyl]-3-(trifluoromethyl)-1,10,11,12,13,15-hexahydropyrazolo[4′,3′:9,10][1,6]oxazacycloundecino[8,7,6-hi]indole-8-carboxylic Acid] |  |  | > 3.3e-05 M |  | 0.00251 µM |  |  |  | 2.92e-05 M |  | 3.5 µM | 5.58e-06 M | 3.92e-06 M | 1.58e-05 M | 13.4 µM | 1.52e-05 M |  | 
Cn1nc(C(F)(F)F)c2c1COCCCCn1c(C(=O)O)c(CCCOc3cccc4ccccc34)c3cccc-2c31 (single isomer, unassigned) [Example 218, 1-methyl-7-[3-(naphthalen-1-yloxy)propyl]-3-(trifluoromethyl)-1,10,11,12,13,15-hexahydropyrazolo[4′3′:9,10][1,6]oxazacycloundecino[8,7,6-hi]indole-8-carboxylic Acid] |  |  |  |  | 0.559 µM |  |  |  | 2.52e-05 M |  | > 33 µM | 1.71e-05 M | 2.76e-05 M | > 3.3e-05 M | > 33 µM | 3.05e-05 M |  | 
Cn1nc(CC(F)(F)F)c2c1COCCCCn1c(C(=O)O)c(CCCOc3cccc4ccccc34)c3cccc-2c31 (single isomer, unassigned) [Example 220, 1-methyl-7-[3-(naphthalen-1-yloxy)propyl]-3-(2,2,2-trifluoroethyl)-1,10,11,12,13,15-hexahydropyrazo[4′,3′:9,10][1,6]oxazacycloundecino[8,7,6-hi]indole-8-carboxylic acid-N-ethylethanamine Salt] |  |  | > 3.3e-05 M |  | 0.00323 µM | 2.27e-05 M |  | 22.4 µM |  |  | 10.1 µM |  | 9.69e-06 M |  | > 33 µM |  | 1.05e-05 M | > 3.3e-05 M
